Data reported in patent US7524503B2, “Human cytomegalovirus (HCMV) cytotoxic T cell epitopes, polyepitopes compositions comprising same and diagnostic and prophylactic and therapeutic uses therefor” (priority 2001, dated 2009).
Read-outs that look alike come from different tables or passages of the source.

Key:
[1] = system: PBMC from healthy HCMV seropositive donors; experiment: IFN-γ ELISPOT assay; format: cell-based, human; details: peptide 10 μg/ml
Outline: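 PBMC from healthy HCMV-seropositive donors (2.5×10^5 cells/well) were stimulated 18 h at 37° C with individual synthetic HCMV peptides (10 μg/ml) on anti-IFN-γ-coated nitrocellulose. IFN-γ spots were developed with biotinylated antibody and streptavidin-alkaline phosphatase and counted automatically. Counts were averaged over 3 wells, and no-peptide wells were subtracted.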

[2] = system: peptide-sensitized autologous PHA blasts or LCLs; format: cell-based, human; design: key to CTL response: Y: Yes; ND: Not detected; details: for CTL activity of polyclonal CTL line: donor seven, effector:target ratio 10:1
CD4+ T cells = experiment: CD4+/CD8+ analysis of 20-mer peptides (intracellular IFN-γ staining or depletion ELISPOT); format: cell-based, human
Protocol: (§1) To determine whether a particular 20-mer peptide contained either a CD4^+- or CD8^+-restricted epitope, or both, CD4^+/CD8^+ cell depletion ELISPOT assays were performed on PBMC from healthy virus carriers. For any one experiment, three populations of cells were used: a) CD8^+-depleted PBMC, b) CD4^+-depleted PBMC, and c) non-depleted PBMC. These populations of cells were tested concurrently with the same peptides in a conventional ELISPOT assay as described herein above. DYNABEADS M-450 (Dynal, Oslo, Norway) that bound specifically to CD4^+- or CD8^+ cells were used to perform the depletion essentially according to manufacturers instructions. Beads were washed twice in cold PBS supplemented with 2% FCS using magnetic isolation. The requisite number of cells was resuspended in cold PBS supplemented with 2% FCS, added to the beads and then incubated at 4° C., in the dark, for 30 mins (CD8^+ beads) or 60 mins (CD4^+ beads). Populations were depleted of CD4^+ or CD8^+ cells using magnetic separation. After depletion, the non-attached cells were removed and washed once in growth medium, counted and used in conventional ELISPOT assay. Depleted cells were used at 1.7×10^5 cells per well and the non-depleted population was used at the standard 2.5×10^5 cells per well. After the depletion step, each respective cell population was assessed for the purity of CD4^+ and CD8^+ T cells by three-colour flow cytometry. Samples of depleted cell populations were stained with anti-CD3 antibody directly conjugated to fluorescein isothiocyanate (FITC), anti-CD4 antibody conjugated with phycoerythrin (PE) fluorochrome, and anti-CD8 antibody conjugated with Tricolor fluorochrome (described below). The percent of CD3^+/CD4^+ cells present within the CD8^+-depleted population and the percent of CD3^+/CD8^+ cells present within the CD4^+-depleted populations were assessed on FACSCalibur cytometer (Becton Dickinson). The purity of each population was greater than 90% and the results from the ELISPOT assays are expressed as the percentage of CD4+ or CD8^+ cells within the depleted populations that responded toward each peptide by producing IFN-γ.
(§2) PBMCs were incubated at 37° C. in RPMI+10% FCS with and without 10 μg/ml peptides for 6 hours. Golgiplug™ (Pharmingen, San Diego, Calif., USA) was added to the samples according to manufacturer's instructions during the second hour of incubation and cells activated with 25 ng/ml phorbol 12-myristidate 13-acetate (PMA; Sigma-Aldrich Co, St. Louis Mo.) and 1 μg/ml iomomycin (Sigma) acted as a positive control. Following the incubation, 1×10^6 cells/sample were washed and resuspended in staining buffer consisting of PBS with GolgiPlug™, 3% FCS and sodium azide. Cells were then stained with FITC conjugated anti-CD3-FITC (UCHT1, Immunotech, Marseille, France), and either Tricolor (TRI) conjugated anti-CD4 (S3.5, Caltag, Burlingame, Calif.) or anti-CD8 (3B5, Caltag) for 30 minutes, 4° C. in the dark. The cells were fixed for 20 min at 4° C. with Cytofix/Cytoperm™ (BD Biosciences) and resuspended in Perm/Wash™ permeabilization buffer (BD Biosciences) according to manufacturers protocol. Fixed cells were stained with phycoerythrin (PE) conjugated anti-human IFN-γ (B27, Pharmingen) for 30 min at 4° C. in the dark. As a negative control, cells were stained with appropriate isotype matched control antibodies. Cells were washed twice in permeabilization buffer and resuspended in staining buffer before analysis by three-colour flow cytometry on a FACSCalibur cytometer (BD Biosciences). All data analysis was carried out using FlowJo software (Tree Star, Inc. San Carlos, CA).
(§3) When using 20-mer peptides to map epitopes by ELISPOT, it is possible that some responses may be MHC class-II restricted, and not necessarily restricted through HLA class I alleles. It was evident throughout this study that some epitopes identified using ELISPOT could not be confirmed using cytotoxicity analysis. […]

CD8+ T cells = experiment: as above; format: cell-based, human
Protocol: as §1, §2, §3

HLA A2 = target: T1, HLA A2 (Homo sapiens, UniProt P04439, D140Y/D185E/D98H/E176V/E277Q/G131W/G231S/I119V/I121R/I166T/I218V/L300P/L318F/N151K/N90K/P208A/P217A/Q86G/Q94H/R138H/R169H/T345S); format: cell-based; details: HLA A2 on T2 cells; relative increase in HLA expression vs no peptide at 26° C.
T1 construct: endogenous in cells; host or cells: T2 cells

[3] = overlapping 20mer peptides, Table 4

Sequence: IIKPGKISHIMLDVAFTSHE
- ELISPOT Responses (SFC/10^6 PBMC) ([1]; donor eight): JW(370) SFC/10^6 PBMC
- ELISPOT Responses (SFC/10^6 PBMC) ([1]; donor epsilon): 691 SFC/10^6 PBMC
- ELISPOT Responses (SFC/10^6 PBMC) ([1]; donor gamma): 177 SFC/10^6 PBMC
- ELISPOT Responses (SFC/10^6 PBMC) ([1]; donor seven): SB(155), SFC/10^6 PBMC
- CTL response [2, 3]: Y
- Responding cells (% CD4) (CD4+ T cells; donor eight): 0.04%
- Responding cells (% CD4) (CD4+ T cells; donor seven): 0.02%
- Responding cells (% CD8) (CD8+ T cells; donor eight): 0.05%
- Responding cells (% CD8) (CD8+ T cells; donor seven): 0.03%

Sequence: ATVQGQNLKYQEFFWDANDI
- ELISPOT Responses (SFC/10^6 PBMC) ([1]; donor epsilon): SC(687) SFC/10^6 PBMC
- ELISPOT Responses (SFC/10^6 PBMC) ([1]; donor five): 226 SFC/10^6 PBMC
- ELISPOT Responses (SFC/10^6 PBMC) ([1]; donor gamma): 202 SFC/10^6 PBMC
- ELISPOT Responses (SFC/10^6 PBMC) ([1]; donor three): 189 SFC/10^6 PBMC
- ELISPOT Responses (SFC/10^6 PBMC) ([1]; donor twelve): 25 SFC/10^6 PBMC
- CTL response [2, 3]: Y
- Responding cells (% CD4) (CD4+ T cells; donor twelve): 0.03%
- Responding cells (% CD8) (CD8+ T cells; donor twelve): 0%

Sequence: RQTEKHELLVLVKKAQLNRH
- ELISPOT Responses (SFC/10^6 PBMC) ([1]; donor fourteen): RK(313) SFC/10^6 PBMC
- CTL response [2, 3]: Y
- Responding cells (% CD4) (CD4+ T cells; donor fourteen): 1.52%
- Responding cells (% CD8) (CD8+ T cells; donor fourteen): 0.57%

Sequence: AVGGAVASV (human cytomegalovirus gB CTL epitope peptide)
- ELISPOT Responses (SFC/10^6 PBMC) ([1]; donor seven): SB(192) SFC/10^6 PBMC
- CTL response ([2]; predicted epitopes, Table 3): Y
- MSE (MHC stabilization efficiency) (HLA A2): − (− = 0-50%)

Sequence: TYEKYGNVSVFETSGGLVVF (human cytomegalovirus gB CTL epitope peptide)
- ELISPOT Responses (SFC/10^6 PBMC) ([1]; donor delta): SE(75) SFC/10^6 PBMC
- CTL response [2, 3]: Y
- Responding cells (% CD4) (CD4+ T cells; donor delta): 0%
- Responding cells (% CD8) (CD8+ T cells; donor delta): 0.097%

Sequence: SICPSQEPMSIYVYALPLKM
- ELISPOT Responses (SFC/10^6 PBMC) ([1]; donor eight): 3178 SFC/10^6 PBMC
- CTL response [2, 3]: Y
- Responding cells (% CD4) (CD4+ T cells; donor eight): 1.18%
- Responding cells (% CD8) (CD8+ T cells; donor eight): 1.36%

Sequence: MNGQQIFLEVQAIRETVELR
- ELISPOT Responses (SFC/10^6 PBMC) ([1]; donor alpha): 277 SFC/10^6 PBMC
- ELISPOT Responses (SFC/10^6 PBMC) ([1]; donor two): 2985 SFC/10^6 PBMC
- CTL response [2, 3]: Y
- Responding cells (% CD4) (CD4+ T cells; donor two): 0.26%
- Responding cells (% CD8) (CD8+ T cells; donor two): 0.48%

Sequence: QAIRETVELRQYDPVAALFF
- ELISPOT Responses (SFC/10^6 PBMC) ([1]; donor alpha): 102 SFC/10^6 PBMC
- ELISPOT Responses (SFC/10^6 PBMC) ([1]; donor seven): 241 SFC/10^6 PBMC
- ELISPOT Responses (SFC/10^6 PBMC) ([1]; donor two): JD(2593) SFC/10^6 PBMC
- CTL response [2, 3]: Y
- Responding cells (% CD4) (CD4+ T cells; donor two): 0.28%
- Responding cells (% CD8) (CD8+ T cells; donor two): 0.33%

Sequence: YYTSAFVFPTKDVALRHVVC
- ELISPOT Responses (SFC/10^6 PBMC) ([1]; donor eight): JW(858) SFC/10^6 PBMC
- ELISPOT Responses (SFC/10^6 PBMC) ([1]; donor seven): 775 SFC/10^6 PBMC
- ELISPOT Responses (SFC/10^6 PBMC) ([1]; donor two): 358 SFC/10^6 PBMC
- CTL response [2, 3]: Y
- Responding cells (% CD4) (CD4+ T cells; donor two): 0.05%
- Responding cells (% CD8) (CD8+ T cells; donor two): 0.04%

Sequence: SMMWMRFFV (human cytomegalovirus US2 CTL epitope peptide)
- ELISPOT Responses (SFC/10^6 PBMC) ([1]; donor delta): SE(393) SFC/10^6 PBMC
- CTL response ([2]; predicted epitopes, Table 3): Y
- MSE (MHC stabilization efficiency) (HLA A2): ++ (++ = 100-199%)

Sequence: WPRERAWALKNPHLAYNPFR (human cytomegalovirus pp150 CTL epitope peptide)
- ELISPOT Responses (SFC/10^6 PBMC) ([1]; donor twelve): RE(83) SFC/10^6 PBMC
- CTL response [2, 3]: Y
- Responding cells (% CD4) (CD4+ T cells; donor twelve): 0.03%
- Responding cells (% CD8) (CD8+ T cells; donor twelve): 0.27%

Sequence: IIYTRNHEV (human cytomegalovirus IE2 CTL epitope peptide)
- ELISPOT Responses (SFC/10^6 PBMC) ([1]; donor delta): SE(137) SFC/10^6 PBMC
- ELISPOT Responses (SFC/10^6 PBMC) ([1]; donor fifteen): 80 SFC/10^6 PBMC
- ELISPOT Responses (SFC/10^6 PBMC) ([1]; donor seven): 369 SFC/10^6 PBMC
- peptide concentration required for half maximal lysis, fold more than NLVPMVATV and VLEETSVML epitopes respectively [2]: 100-500 fold
- CTL response ([2]; predicted epitopes, Table 3): Y
- MSE (MHC stabilization efficiency) (HLA A2): + (+ = 51-99%)

Sequence: RSYAYIYTTYLLGSNTEYVA (human cytomegalovirus gB CTL epitope peptide)
- ELISPOT Responses (SFC/10^6 PBMC) ([1]; donor fourteen): RK(170) SFC/10^6 PBMC
- CTL response [2, 3]: Y
- Responding cells (% CD4) (CD4+ T cells; donor fourteen): 0.39%
- Responding cells (% CD8) (CD8+ T cells; donor fourteen): 0.58%

Sequence: ILARNLVPMVATVQGQNLKY
- ELISPOT Responses (SFC/10^6 PBMC) ([1]; donor four): 500 SFC/10^6 PBMC
- ELISPOT Responses (SFC/10^6 PBMC) ([1]; donor seven): 216 SFC/10^6 PBMC
- ELISPOT Responses (SFC/10^6 PBMC) ([1]; donor three): MW(229) SFC/10^6 PBMC
- CTL response [2, 3]: Y

Sequence: TAAKAYAVGQFEQPTETPPE (human cytomegalovirus IE2 CTL epitope peptide)
- ELISPOT Responses (SFC/10^6 PBMC) ([1]; donor fourteen): 859 SFC/10^6 PBMC
- ELISPOT Responses (SFC/10^6 PBMC) ([1]; donor seven): 326 SFC/10^6 PBMC
- CTL response [2, 3]: Y
- Responding cells (% CD4) (CD4+ T cells; donor fourteen): 0.2%
- Responding cells (% CD8) (CD8+ T cells; donor fourteen): 0.35%

Sequence: GQTEPIAFV (human cytomegalovirus pp150 CTL epitope peptide)
- CTL activity of polyclonal CTL line [2]: lower CTL activity
- MSE (MHC stabilization efficiency) (HLA A2): + (+ = 51-99%)

Sequence: FPTKDVAL [reference compound]
- ELISPOT Responses (SFC/10^6 PBMC) ([1]; donor three): MW(445) SFC/10^6 PBMC
- CTL response ([2]; predicted epitopes, Table 3): Y

Sequence: VLAELVKQI (human cytomegalovirus IE1 CTL epitope peptide)
- ELISPOT Responses (SFC/10^6 PBMC) ([1]; donor seven): SB(276) SFC/10^6 PBMC
- CTL response ([2]; predicted epitopes, Table 3): Y
- MSE (MHC stabilization efficiency) (HLA A2): ++ (++ = 100-199%)

Sequence: VLEETSVML (human cytomegalovirus IE1 CTL epitope peptide)
- ELISPOT Responses (SFC/10^6 PBMC) ([1]; donor fifteen): 245 SFC/10^6 PBMC
- ELISPOT Responses (SFC/10^6 PBMC) ([1]; donor seven): 3752 SFC/10^6 PBMC
- CTL activity of polyclonal CTL line [2]: strong CTL activity
- CTL response ([2]; predicted epitopes, Table 3): Y

Sequence: LNIPSINVHHYPSAAERKHR
- ELISPOT Responses (SFC/10^6 PBMC) ([1]; donor sixteen): 222 SFC/10^6 PBMC
- ELISPOT Responses (SFC/10^6 PBMC) ([1]; donor twelve): 285 SFC/10^6 PBMC
- CTL response [2, 3]: Y
